Data: ChEMBL document CHEMBL6071209, “Design, Synthesis, and Biological Evaluation of a Series of Spiro Analogues as Novel HPK1 Inhibitors” (ACS Med Chem Lett, 2024)

Key:
[1] = rat, in vivo, po, 10 mg/kg, 24 h
in vivo [2] = conditions: Sprague-Dawley, rat, iv, 1 mg/kg
[3] = mouse, in vivo, po, 10 mg/kg, 24 h
in vivo [4] = conditions: BALB/c, mouse, iv, 1 mg/kg
in vivo [5] = conditions: BALB/c, mouse, po, 10 mg/kg
in vivo [6] = conditions: BALB/c, mouse, iv, 1 mg/kg; remark: listed apart in the source
[7] = Volume of distribution in BALB/c mouse at 1 mg/kg, iv measured upto 24 hrs by LC-MS/MS method; type: ADME, organism-based; conditions: in vivo
[8] = Clearance in Beagle dog at 1 mg/kg, iv measured upto 24 hrs by LC-MS/MS method; type: ADME, organism-based, Canis lupus familiaris; conditions: in vivo
[9] = Volume of distribution in Beagle dog at 1 mg/kg, iv measured upto 24 hrs by LC-MS/MS method; type: ADME, organism-based, Canis lupus familiaris; conditions: in vivo
[10] = Bioavailability in Beagle dog at 1 mg/kg, iv measured upto 24 hrs by LC-MS/MS method; type: ADME, organism-based, Canis lupus familiaris; conditions: in vivo
[11] = Volume of distribution in Sprague-Dawley rat at 1 mg/kg, iv measured upto 24 hrs by LC-MS/MS method; type: ADME, organism-based; conditions: in vivo
[12] = mouse, in vivo, iv, 1 mg/kg, 24 h
[13] = dog, in vivo, po, 2 mg/kg, 24 h
in vivo [14] = conditions: Sprague-Dawley, rat, iv, 1 mg/kg; remark: listed apart in the source
in vivo [15] = conditions: Sprague-Dawley, rat, iv, 1 mg/kg; remark: listed apart in the source
in vivo [16] = conditions: beagle, dog, po, 2 mg/kg

## COC1CCC2(CC1)c1ccc(Nc3ccc(-c4cnc5cc(F)ccn45)c4c3C(=O)NC4)nc1CN2C (configuration not stated)
[1]
  AUC/dose: 15.3 ng·h/mL
In vivo [2]
  half-life at 24 h: 60 min

## O=C1NCc2c(-c3cnc4cc(F)ccn34)ccc(Nc3ccc4c(n3)CN(CCN3CC[C@@H](F)C3)C43CCOCC3)c21
[3]
  AUC/dose: 290.2 ng·h/mL
[1]
  AUC/dose: 43.5 ng·h/mL
In vivo [4]
  clearance at 24 h: 28 mL/min/kg
In vivo [5]
  half-life at 24 h: 84 min
In vivo [6]
  bioavailability at 24 h: 50%
In vivo [2]
  half-life at 24 h: 246 min

## CN(C)Cc1nc(Nc2ccc(-c3cnc4cc(F)ccn34)c3c2C(=O)NC3)ccc1C1CCOCC1
[7]
  Vd: 5 L/kg
[8]
  clearance: 108 mL/min/kg
[9]
  Vd: 24.2 L/kg
[10]
  bioavailability: 4.9%
[11]
  Vd: 12.5 L/kg
[3]
  AUC/dose: 224.5 ng·h/mL
[12]
  F: 187%
[1]
  AUC/dose: 31.2 ng·h/mL
[13]
  AUC/dose: 6.5 ng·h/mL
In vivo [4]
  clearance at 24 h: 138 mL/min/kg
In vivo [5]
  half-life at 24 h: 222 min
In vivo [14]
  clearance at 24 h: 230 mL/min/kg
In vivo [15]
  bioavailability at 24 h: 38%
In vivo [16]
  half-life at 24 h: 90 min
